Test results published in publication PMC2529273, “Pharmacological Properties of DOV 315,090, an ocinaplon metabolite” (BMC Pharmacology, 2008).
Several values for one entry are separate records, joined by “and”; a condition that tells them apart may be missing. Equal entries are not always repeated. Where two headings read alike, the source gives them in different places.

Key:
[1] = target: T1, α5β2γ2S GABAA-R (Rattus norvegicus, UniProt P18508+P19969); assay: cell-based; settings: for EC50/DZ EC50: ratio to diazepam EC50; for Emax/DZ Emax: ratio to diazepam Emax
T1 sequence (P19969 32-464 limits assumed): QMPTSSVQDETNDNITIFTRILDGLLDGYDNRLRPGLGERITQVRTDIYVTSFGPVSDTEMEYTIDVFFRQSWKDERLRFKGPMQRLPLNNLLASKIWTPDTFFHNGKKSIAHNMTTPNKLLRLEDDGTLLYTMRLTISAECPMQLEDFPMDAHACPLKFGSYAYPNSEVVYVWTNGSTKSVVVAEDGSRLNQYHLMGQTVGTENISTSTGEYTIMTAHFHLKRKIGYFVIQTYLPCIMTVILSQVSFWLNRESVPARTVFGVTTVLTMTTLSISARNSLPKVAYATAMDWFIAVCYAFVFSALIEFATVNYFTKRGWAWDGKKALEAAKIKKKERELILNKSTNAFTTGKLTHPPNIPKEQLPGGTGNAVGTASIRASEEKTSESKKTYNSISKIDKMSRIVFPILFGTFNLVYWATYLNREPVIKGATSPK
T1 sequence (P63138 25-474 partner limits assumed): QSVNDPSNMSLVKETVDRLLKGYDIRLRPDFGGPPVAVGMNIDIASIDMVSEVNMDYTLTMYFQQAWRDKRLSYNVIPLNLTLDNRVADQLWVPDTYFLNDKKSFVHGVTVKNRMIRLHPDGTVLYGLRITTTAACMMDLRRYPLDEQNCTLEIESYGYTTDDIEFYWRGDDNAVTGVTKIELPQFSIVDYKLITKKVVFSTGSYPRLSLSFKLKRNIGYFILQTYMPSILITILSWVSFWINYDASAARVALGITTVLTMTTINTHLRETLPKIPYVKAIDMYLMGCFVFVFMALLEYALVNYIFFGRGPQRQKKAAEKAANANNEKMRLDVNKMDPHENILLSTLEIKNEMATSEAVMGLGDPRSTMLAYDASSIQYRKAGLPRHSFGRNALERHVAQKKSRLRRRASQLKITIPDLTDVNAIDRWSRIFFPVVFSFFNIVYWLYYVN
T1 sequence (P18508 39-466): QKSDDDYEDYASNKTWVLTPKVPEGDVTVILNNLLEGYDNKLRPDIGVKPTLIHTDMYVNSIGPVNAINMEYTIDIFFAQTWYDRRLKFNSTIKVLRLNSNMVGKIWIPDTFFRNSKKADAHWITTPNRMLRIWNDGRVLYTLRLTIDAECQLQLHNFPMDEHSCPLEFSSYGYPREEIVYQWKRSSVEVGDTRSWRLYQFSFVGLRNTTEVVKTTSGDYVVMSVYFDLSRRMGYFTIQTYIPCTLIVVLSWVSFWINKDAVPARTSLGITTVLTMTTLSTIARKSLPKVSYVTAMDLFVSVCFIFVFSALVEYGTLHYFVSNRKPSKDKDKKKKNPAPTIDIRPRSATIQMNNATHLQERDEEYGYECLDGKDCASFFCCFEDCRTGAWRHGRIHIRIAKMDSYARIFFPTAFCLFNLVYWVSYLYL
Description: (§1) cRNAs encoding GABAA-R α1, α2, α3, α5, β2 and γ2S subunits were injected into oocytes from Xenopus laevis. […] GABA (Sigma) was prepared as a 1 M stock solution in ND96. Microelectrodes of 1–3 MΩ when filled with 3 M KCl were used to record from oocytes in a recording chamber continuously perfused with ND-96 buffer solution. During data acquisition, oocytes were clamped at a holding potential of -70 mV. Drugs were applied by perfusion at a rate of approximately 50 μl sec^-1 for 20 s followed by a 120 s wash. […] All experiments were performed at room temperature (22–24°C).
(§2) GABA concentration-response data was obtained for each subunit combination, and the GABA EC10 was determined by nonlinear regression using the logistic equation. This concentration of GABA was used for modulation studies. Peak current measurements were normalized and expressed as a fraction of the peak control current measurements. Control responses to an EC10 concentration of GABA were re-determined after every 2 – 4 applications of modulator + GABA. […] Potentiation data from each oocyte was fitted to the equation Potentiation = Emax × [Drug]/([Drug + EC50) by non-linear regression (Prism, Graph-Pad software). […] Given the lack of consistency of this possible high affinity effect, we have omitted it in fitting our concentration-effect curves. The choice of fitting to a monophasic or biphasic equation had only a small effect on the EC50 for the major component of modulation.
(§3) Rat GABAA-Rs consisting of α1β2γ2S, α2β2γ2S, α3β2γ2S and α5β2γ2S subunits were expressed in Xenopus oocytes. […] Higher concentrations (in parentheses) were excluded from the fit due to a decline in potentiation at higher concentrations.

[2] = target: T2, α1β2γ2S GABAA-R (Rattus norvegicus, UniProt P18508+P62813); assay: cell-based; settings: for EC50/DZ EC50: ratio to diazepam EC50; for Emax/DZ Emax: ratio to diazepam Emax
T2 sequence (P62813 28-455): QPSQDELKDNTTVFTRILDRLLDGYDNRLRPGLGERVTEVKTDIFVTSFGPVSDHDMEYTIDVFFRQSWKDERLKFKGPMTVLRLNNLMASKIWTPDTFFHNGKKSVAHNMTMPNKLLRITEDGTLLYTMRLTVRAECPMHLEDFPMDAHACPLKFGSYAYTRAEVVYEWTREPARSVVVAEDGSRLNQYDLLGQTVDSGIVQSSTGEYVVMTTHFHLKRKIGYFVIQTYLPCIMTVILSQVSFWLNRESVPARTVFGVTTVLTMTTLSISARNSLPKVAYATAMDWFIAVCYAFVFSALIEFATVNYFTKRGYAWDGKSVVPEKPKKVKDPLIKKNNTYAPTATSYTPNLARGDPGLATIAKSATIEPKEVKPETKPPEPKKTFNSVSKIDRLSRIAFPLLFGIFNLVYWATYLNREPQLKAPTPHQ
T2 sequence (P63138 25-474 partner limits assumed): as the sequence (P63138 25-474 partner limits assumed) above
T2 sequence (P18508 39-466): as the sequence (P18508 39-466) above
Description: as §1, §2, §3

[3] = target: T3, α2β2γ2S GABAA-R (Rattus norvegicus, UniProt P18508+P23576); assay: cell-based; settings: for EC50/DZ EC50: ratio to diazepam EC50; for Emax/DZ Emax: ratio to diazepam Emax
T3 sequence (P23576 29-451): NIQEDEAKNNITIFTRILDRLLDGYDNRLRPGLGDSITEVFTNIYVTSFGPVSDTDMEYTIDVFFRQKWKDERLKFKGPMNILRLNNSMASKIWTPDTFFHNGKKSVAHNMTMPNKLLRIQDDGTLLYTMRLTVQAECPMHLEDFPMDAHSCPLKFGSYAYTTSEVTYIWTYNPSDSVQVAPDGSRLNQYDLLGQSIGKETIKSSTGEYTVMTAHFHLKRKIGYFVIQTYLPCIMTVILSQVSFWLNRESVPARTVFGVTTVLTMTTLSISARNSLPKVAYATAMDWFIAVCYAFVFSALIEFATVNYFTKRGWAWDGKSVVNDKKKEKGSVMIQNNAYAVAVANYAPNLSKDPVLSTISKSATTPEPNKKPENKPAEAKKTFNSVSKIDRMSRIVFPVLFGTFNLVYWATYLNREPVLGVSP
T3 sequence (P63138 25-474 partner limits assumed): as the sequence (P63138 25-474 partner limits assumed) above
T3 sequence (P18508 39-466): as the sequence (P18508 39-466) above
Description: as §1, §2, §3

[4] = target: T4, α3β2γ2S GABAA-R (Rattus norvegicus, UniProt P18508+P20236); assay: cell-based; type: cell-based; settings: for EC50/DZ EC50: ratio to diazepam EC50; for Emax/DZ Emax: ratio to diazepam Emax
T4 sequence (P20236 29-493): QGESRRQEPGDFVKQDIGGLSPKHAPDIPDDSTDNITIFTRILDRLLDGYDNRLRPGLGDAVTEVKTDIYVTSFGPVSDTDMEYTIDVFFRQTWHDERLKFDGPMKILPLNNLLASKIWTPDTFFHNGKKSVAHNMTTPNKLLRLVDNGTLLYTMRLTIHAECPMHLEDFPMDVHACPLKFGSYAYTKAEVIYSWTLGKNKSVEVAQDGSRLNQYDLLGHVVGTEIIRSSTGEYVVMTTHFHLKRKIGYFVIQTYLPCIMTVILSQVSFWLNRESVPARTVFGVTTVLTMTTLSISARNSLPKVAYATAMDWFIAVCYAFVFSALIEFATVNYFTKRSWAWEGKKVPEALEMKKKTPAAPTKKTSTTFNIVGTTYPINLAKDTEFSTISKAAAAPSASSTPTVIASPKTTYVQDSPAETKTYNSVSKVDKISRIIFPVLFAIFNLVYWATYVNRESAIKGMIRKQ
T4 sequence (P63138 25-474 partner limits assumed): as the sequence (P63138 25-474 partner limits assumed) above
T4 sequence (P18508 39-466): as the sequence (P18508 39-466) above
Description: as §1, §2, §3

[5] = in vivo; type: in vivo, rat
Description: At 1 h, corresponding to the time at which the anticonflict effect of ocinaplon was evaluated, the plasma concentration of DOV 315,090 is ~38% of the concentration of parent compound.
Figure 2 Pharmacokinetics of ocinaplon and DOV 315,090. Blood levels of ocinaplon (●,○) and DOV 315090 (▲,△) were determined at various times after i.v. (●,▲) or oral (○,△) administration of 5 mg/kg ocinaplon to rats. […] This animal may have regurgitated a portion of the dose (of the suspension).

[6] = target: T5, α5β2γ3 GABAA-R (Rattus norvegicus, UniProt P19969+P28473); assay: biochemical; type: binding; settings: for IC50/DZ IC50: α5β2γ3, ratio to diazepam IC50
T5 construct: expressed in transfected cells; host or cells: HEK293 (CRL 1573), transient transfection
T5 sequence (P19969 32-464 limits assumed): as the sequence (P19969 32-464 limits assumed) above
T5 sequence (P63138 25-474 partner limits assumed): as the sequence (P63138 25-474 partner limits assumed) above
T5 sequence (P28473 18-467): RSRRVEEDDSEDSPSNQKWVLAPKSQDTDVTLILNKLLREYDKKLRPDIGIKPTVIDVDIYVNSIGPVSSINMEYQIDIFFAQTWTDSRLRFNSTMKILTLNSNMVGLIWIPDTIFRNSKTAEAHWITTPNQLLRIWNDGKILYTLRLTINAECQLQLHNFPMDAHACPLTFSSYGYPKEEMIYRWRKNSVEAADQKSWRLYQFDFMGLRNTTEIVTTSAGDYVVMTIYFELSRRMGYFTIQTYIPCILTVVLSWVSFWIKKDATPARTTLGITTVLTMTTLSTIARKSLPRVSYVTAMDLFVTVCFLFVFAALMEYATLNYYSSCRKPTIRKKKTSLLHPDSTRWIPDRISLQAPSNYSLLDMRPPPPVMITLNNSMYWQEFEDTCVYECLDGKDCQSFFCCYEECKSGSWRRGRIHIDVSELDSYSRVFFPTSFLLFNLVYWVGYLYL
Description: (§4) HEK293 cells (CRL 1573, American type Culture Collection, Rockville, MD, USA) were cultured in Dulbecco's modified Eagle's medium (D-MEM, Invitrogen, Carlsbad, CA, USA) supplemented with 10% fetal bovine serum (Invitrogen, Carlsbad, CA, USA) and 1% MEM Non-Essential Amino Acids Solution (Invitrogen, Carlsbad, CA, USA). cDNAs encoding rat GABAA-R subunits were in the following vectors: α1 and α5 in pRc/CMV, α2, α3, γ2S and γ3 in pcDNA3 and β2 in pcDNA1. The cells were transiently transfected (5 μg of each cDNA per 100 mm dish) using FuGene™ (Roche Diagnostics Corporation) at a 3:1 FuGene:DNA ratio. […] Forty-eight hours after transfection, cells were washed with ice-cold PBS, harvested and homogenized. Cell homogenates were centrifuged (100,000 g, 25 min) and washed three times by homogenization in ice-cold PBS buffer followed by centrifugation at 100,000 g for 25 min. The final pellets were stored at -20°C until needed.
(§5) The samples were then diluted with 5 ml of ice-cold buffer and filtered under vacuum through glass-fiber filters (GF/B Whatman). Filters were washed 3 times with 5 ml of buffer and the radioactivity was quantitated by liquid scintillation counting in 5 ml of Ecolite scintillation fluid (ICN). Non-specific binding determined in the presence of 100 μM Ro 15–1788 (Sigma-Aldrich) was subtracted from total binding to calculate specific binding. Data were analyzed by non-linear regression (Prism, Graph-Pad software).

[7] = target: T6, α1β2γ3 GABAA-R (Rattus norvegicus, UniProt P28473+P62813); assay: biochemical; type: binding; settings: for IC50/DZ IC50: α1β2γ3, ratio to diazepam IC50
T6 construct: expressed in transfected cells; host or cells: HEK293 (CRL 1573), transient transfection
T6 sequence (P62813 28-455): as the sequence (P62813 28-455) above
T6 sequence (P63138 25-474 partner limits assumed): as the sequence (P63138 25-474 partner limits assumed) above
T6 sequence (P28473 18-467): as the sequence (P28473 18-467) above
Description: as §4, §5

[8] = target: T4, α3β2γ2S GABAA-R; assay: biochemical; type: binding; settings: for IC50/DZ IC50: ratio to diazepam IC50
Description: as §4, §5

[9] = target: T7, α2β2γ3 GABAA-R (Rattus norvegicus, UniProt P23576+P28473); assay: biochemical; type: binding; settings: for IC50/DZ IC50: α2β2γ3, ratio to diazepam IC50
T7 construct: expressed in transfected cells; host or cells: HEK293 (CRL 1573), transient transfection
T7 sequence (P23576 29-451): as the sequence (P23576 29-451) above
T7 sequence (P63138 25-474 partner limits assumed): as the sequence (P63138 25-474 partner limits assumed) above
T7 sequence (P28473 18-467): as the sequence (P28473 18-467) above
Description: as §4, §5

[10] = target: T1, α5β2γ2S GABAA-R; assay: biochemical; type: binding; settings: for IC50/DZ IC50: ratio to diazepam IC50
Description: as §4, §5

[11] = target: T2, α1β2γ2S GABAA-R; assay: biochemical; type: binding; settings: for IC50/DZ IC50: ratio to diazepam IC50
Description: as §4, §5

[12] = target: T3, α2β2γ2S GABAA-R; assay: biochemical; type: binding; settings: for IC50/DZ IC50: ratio to diazepam IC50
Description: as §4, §5

[13] = α5β2γ2S, GABA EC10, mean ± SEM, read-out: pEC50 (converted)
[14] = α5β2γ2S, GABA EC10, number of oocytes in parentheses, read-out: EC50
[15] = α1β2γ2S, GABA EC10, number of oocytes in parentheses, read-out: EC50
[16] = α2β2γ2S, GABA EC10, number of oocytes in parentheses, read-out: EC50
[17] = α3β2γ2S, GABA EC10, mean ± SEM, read-out: pEC50 (converted)
[18] = α3β2γ2S, GABA EC10, number of oocytes in parentheses, read-out: EC50
[19] = [3H]Ro15-1788 displacement, α5β2γ3, n = 3, read-out: IC50
[20] = α5β2γ3, mean ± SEM, n = 3, read-out: pIC50 (converted)
[21] = [3H]Ro15-1788 displacement, α1β2γ3, n = 3, read-out: IC50
[22] = α1β2γ3, mean ± SEM, n = 3, read-out: pIC50 (converted)
[23] = [3H]Ro15-1788 displacement, n = 3, read-out: IC50
[24] = mean ± SEM, n = 3, read-out: pIC50 (converted)
[25] = [3H]Ro15-1788 displacement, α2β2γ3, n = 3, read-out: IC50
[26] = α2β2γ3, mean ± SEM, n = 3, read-out: pIC50 (converted)

## O=C(c1ccccn1)c1cnn2c(-c3cc[n+]([O-])cc3)ccnc12 [DOV 315,090, (7-(1-Oxidopyridin-1-ium-4-yl)pyrazolo [1,5-a]pyrimidin-3-yl)(pyridin-2-yl)methanone]
[1]
  Emax: 68 ± 8%
[1]; [13]
  EC50: 9.33 µM
[1]; [14]
  EC50: 10.1 µM
[1]; α5β2γ2S
  EC50/DZ EC50: 405
  Emax/DZ Emax: 0.30
[1]; α5β2γ2S, ratio to ocinaplon EC50
  EC50/OC EC50: 2.92
[1]; α5β2γ2S, ratio to ocinaplon Emax
  Emax/OC Emax: 0.81
[2]
  Emax: 192 ± 4%
[2]; [15]
  EC50: 4.87 µM
[2]; α1β2γ2S
  EC50/DZ EC50: 128
  Emax/DZ Emax: 1.33
[2]; α1β2γ2S, ratio to ocinaplon EC50
  EC50/OC EC50: 1.66
[2]; α1β2γ2S, ratio to ocinaplon Emax
  Emax/OC Emax: 1.45
[3]
  Emax: 139 ± 23%
[3]; α2β2γ2S, GABA EC10, mean ± SEM, read-out: pEC50 (converted)
  EC50: 12 µM
[3]; [16]
  EC50: 12.5 µM
[3]; α2β2γ2S
  EC50/DZ EC50: 482
  Emax/DZ Emax: 0.88
[3]; α2β2γ2S, ratio to ocinaplon EC50
  EC50/OC EC50: 1.37
[3]; α2β2γ2S, ratio to ocinaplon Emax
  Emax/OC Emax: 0.92
[4]
  Emax: 340 ± 35%
[4]; [17]
  EC50: 10 µM
[4]; [18]
  EC50: 10.2 µM
[4]; α3β2γ2S
  EC50/DZ EC50: 111
  Emax/DZ Emax: 1.46
[4]; α3β2γ2S, ratio to ocinaplon EC50
  EC50/OC EC50: 1.27
[4]; α3β2γ2S, ratio to ocinaplon Emax
  Emax/OC Emax: ~1.87
[5]; rats, 1 h after administration of ocinaplon 5 mg/kg
  plasma concentration as % of the concentration of parent compound (ocinaplon): ~ 38% and 38%
[6]; [19]
  IC50: 27 µM
[6]; [20]
  IC50: 26.3 µM
[6]
  IC50/DZ IC50: 323
[6]; α5β2γ3, ratio to ocinaplon IC50
  IC50/OC IC50: 2.59
[7]; [21]
  IC50: 5.5 µM
[7]; [22]
  IC50: 5.37 µM
[7]
  IC50/DZ IC50: 25
[7]; α1β2γ3, ratio to ocinaplon IC50
  IC50/OC IC50: 2.40
[8]; [23]
  IC50: 9.3 µM
[8]; [24]
  IC50: 8.32 µM
[8]
  IC50/DZ IC50: 170
[8]; ratio to ocinaplon IC50
  IC50/OC IC50: 1.09
[9]; [25]
  IC50: 20 µM
[9]; [26]
  IC50: 19.1 µM
[9]
  IC50/DZ IC50: 120
[9]; α2β2γ3, ratio to ocinaplon IC50
  IC50/OC IC50: 0.98
[10]; [23]
  IC50: 22 µM
[10]; [24]
  IC50: 21.4 µM
[10]
  IC50/DZ IC50: 790
[10]; ratio to ocinaplon IC50
  IC50/OC IC50: 2.24
[11]; [23]
  IC50: 7 µM
[11]; [24]
  IC50: 6.46 µM
[11]
  IC50/DZ IC50: 220
[11]; ratio to ocinaplon IC50
  IC50/OC IC50: 1.02
[12]; [23]
  IC50: 24 µM
[12]; [24]
  IC50: 23.4 µM
[12]
  IC50/DZ IC50: 760
[12]; ratio to ocinaplon IC50
  IC50/OC IC50: 0.89

## O=C(c1ccccn1)c1cnn2c(-c3ccncc3)ccnc12 [ocinaplon, 2-pyridinyl [7-(4-pyridinyl)pyrazolo[1,5-a]pyrimidin-3-yl]methanone]
[1]
  Emax: 84 ± 4%
[1]; [13]
  EC50: 3.31 µM
[1]; [14]
  EC50: 3.5 µM
[1]; α5β2γ2S
  EC50/DZ EC50: 139
  Emax/DZ Emax: 0.37
[2]
  Emax: 132 ± 8%
[2]; α1β2γ2S, GABA EC10, mean ± SEM, read-out: pEC50 (converted)
  EC50: 2.69 µM
[2]; [15]
  EC50: 2.93 µM
[2]; α1β2γ2S
  EC50/DZ EC50: 77
  Emax/DZ Emax: 0.91
[3]
  Emax: 150 ± 6%
[3]; [16]
  EC50: 9.12 µM
[3]; α2β2γ2S
  EC50/DZ EC50: 350
  Emax/DZ Emax: 0.95
[4]
  Emax: 181 ± 18%
[4]; [17]
  EC50: 6.92 µM
[4]; [18]
  EC50: 8.01 µM
[4]; α3β2γ2S
  EC50/DZ EC50: 87
  Emax/DZ Emax: 0.78
[5]; in vivo, rat, one animal excluded from the plot, 10 min after oral 5 mg/kg ocinaplon, may have regurgitated part of the dose, read-out: blood level
  concentration at 10 min: 470 ng/mL
[6]; [19]
  IC50: 10 µM
[6]; [20]
  IC50: 9.77 µM
[6]
  IC50/DZ IC50: 120
[7]; [21]
  IC50: 2.3 µM
[7]; [22]
  IC50: 2.24 µM
[7]
  IC50/DZ IC50: 10.5
[8]; [23]
  IC50: 7.7 µM
[8]; [24]
  IC50: 7.59 µM
[8]
  IC50/DZ IC50: 158
[9]; [25]
  IC50: 20 µM
[9]; [26]
  IC50: 18.2 µM
[9]
  IC50/DZ IC50: 115
[10]; [23]
  IC50: 9.6 µM
[10]
  IC50/DZ IC50: 355
[11]; [23]
  IC50: 6.3 µM
[11]
  IC50/DZ IC50: 218
[12]; [24]
  IC50: 24 µM
[12]
  IC50/DZ IC50: 759

## CN1C(=O)CN=C(c2ccccc2)c2cc(Cl)ccc21 [diazepam, reference compound]
[1]
  Emax: 224 ± 24%
[2]
  Emax: 144 ± 8%
[3]
  Emax: 157 ± 14%
[4]
  Emax: 232 ± 31%
